Measured values from patent US20200163896A1, “FLOATABLE PHARMACEUTICAL MICROCAPSULE COMPOSITION” (Nanyang Technological University, priority 2017, published 2020).
Like-named read-outs stand apart in the source and are kept apart here.

Assays:
[1] = In vitro drug release in SGF for 48 h; assay type: physicochemical; settings: 37° C., casein 0-5% (w/v)
Method: In vitro release study was conducted in SGF for 48 h. In some experiments, the study was conducted in SGF, followed by SIF, where the total duration in SGF and SIF is 48 h. Each microcapsule sample (20 mg) was added to a bottle containing SGF or SIF medium (20 mL). Both SGF and SIF bottles were placed in a 37° C. rotating incubator. At different time points, half of the medium (10 mL) in each bottle was extracted and replaced with 10 mL new medium. The time points included intervals of hours within a 48-hour period. The drug content in the extracted medium was analyzed using RP-HPLC with the procedure mentioned in Example 1 for determining encapsulation efficiency.

[2] = Plasma pharmacokinetics after oral gavage in mice; assay type: in vivo; settings: for MRT: mouse, plasma, oral, Table 3
Method: The experimental mice were divided into two groups (control and F2) each comprising of five animals. Control formulation (as a solution) was prepared fresh each experimental day in 0.6% methyl cellulose diluted with saline solution. Mice were subsequently administered with 200 ul (control) or 300 μl (pellet) single dose of drug solution at LD:CD:ENT=10:2.5:20 mg·kg^−1 (Group 1, conventional formulation) and LD:CD:ENT=10:2.5:20 mg·kg^−1 (Group 2, F2 via oral gavage using a feeding syringe. At stipulated time points of 0.25, 0.5, 1, 2, 4, 8, 12, 24 hr, the mice were euthanized and blood was collected via cardiac puncture with ethylenediaminetetraacetic acid (EDTA) as the anticoagulant. The blood samples were then centrifuged (4,500 rpm) for 10 min at 25° C. to obtain the plasma. In addition, the brain was harvested and flash freeze in liquid nitrogen. Samples were stored in −80° C. before further analysis via LC/MS. Analysis of drugs in plasma and brain was conducted using LC/MS (Ribeiro et al., (2015). Bioanalysis, 7, 207-220). An Agilent 1290 HPLC system with an Agilent 6120 Quadrupole Mass Spectrometer was used to measure plasma and brain concentrations of drugs. The mobile phase consisted of a gradient of (A) 0.1% (v/v) formic acid (FA) and a mixture of ACN:MeOH (90:10, v/v) containing 0.1% (v/v) FA.
XBridge C8 column (150×4.6 mm; particle size 5 μm) was used at 30° C. The injection volume of samples was 20 μl. Plasma and brain extracted solution were mixed with internal standard and extracted by solid-phase extraction. The calibration curves were linear over the range of 2 to 2000 ng/mL for LD, 2 to 400 ng/mL for CD and 5 to 3000 ng/mL for ENT.

[3] = cited from earlier work
[4] = casein-microcapsule versus control

Release rate of drug from microcapsules versus casein concentration [1]	SMILES	Log P [3]	further results
independent of casein concentration	CN(C)C(=N)N=C(N)N [MET, metformin]		
independent of casein concentration	N[C@@H](Cc1ccc(O)c(O)c1)C(=O)O [LD, levodopa]		increase of MRT of levodopa [2, 4]: ~4 ×; increase of bioavailability (AUC) of levodopa [2, 4]: 2.8 ×; MRT ([2]; given as casein-microcapsule, read-out: mean residence time (MRT) of levodopa, casein-microcapsule): 10.1 h; MRT ([2]; given as control formulation, read-out: mean residence time (MRT) of levodopa, control): 2.6 h
	CO[C@H]1/C=C/O[C@@]2(C)Oc3c(C)c(O)c4c(O)c(c(/C=N/N5CCN(C)CC5)c(O)c4c3C2=O)NC(=O)/C(C)=C\C=C\[C@H](C)[C@H](O)[C@@H](C)[C@@H](O)[C@@H](C)[C@H](OC(C)=O)[C@@H]1C [RIF, rifampicin]	4.24	
independent of casein concentration	C[C@@](Cc1ccc(O)c(O)c1)(NN)C(=O)O [CD, carbidopa]		
independent of casein concentration	CC[C@@H](CO)NCCN[C@@H](CC)CO [ETH, ethambutol]	−0.14	

SMILES	Release rate of drug from microcapsules versus casein concentration [1]	Log P [3]	further results
NNC(=O)c1ccncc1 [ISO, isoniazid]	independent of casein concentration	−0.7	
